Key:
Assay type in all cases: functional
HT-29 [1] = experiment: Cytotoxicity against human HT-29 cells assessed as growth inhibition after 48 hrs by sulforhodamine B assay; conditions: HT-29, 48 h
SF-268 = experiment: Cytotoxicity against human SF268 cells assessed as growth inhibition after 48 hrs by sulforhodamine B assay; conditions: SF-268, 48 h; for CC50: read-out: LC50 (the source's name)
LOX IMVI = experiment: Cytotoxicity against human LOXIMVI cells assessed as growth inhibition after 48 hrs by sulforhodamine B assay
IGROV-1 = experiment: Cytotoxicity against human IGROV1 cells assessed as growth inhibition after 48 hrs by sulforhodamine B assay; conditions: IGROV-1, 48 h
OVCAR-3 = experiment: Cytotoxicity against human OVCAR3 cells assessed as growth inhibition after 48 hrs by sulforhodamine B assay; conditions: OVCAR-3, 48 h
Hs-578T [2] = experiment: Cytotoxicity against human Hs 578T cells assessed as growth inhibition after 48 hrs by sulforhodamine B assay
SNB-19 [3] = experiment: Cytotoxicity against human SNB19 cells assessed as cell growth at 0.01 uM after 48 hrs by sulforhodamine B assay relative to control; conditions: SNB-19, 48 h, read-out: Activity
SF-539 = experiment: Cytotoxicity against human SF539 cells assessed as cell growth at 0.01 uM after 48 hrs by sulforhodamine B assay relative to control; conditions: SF-539, 48 h, read-out: Activity
PC-3 [4] = experiment: Cytotoxicity against human PC3 cells assessed as cell growth at 0.01 uM after 48 hrs by sulforhodamine B assay relative to control; conditions: PC-3, 48 h, read-out: Activity
DU-145 = experiment: Cytotoxicity against human DU145 cells assessed as cell growth at 0.01 uM after 48 hrs by sulforhodamine B assay relative to control; conditions: DU-145, 48 h, read-out: Activity
T47D = experiment: Cytotoxicity against human T47D cells assessed as cell growth at 0.01 uM after 48 hrs by sulforhodamine B assay relative to control; conditions: read-out: Activity
NCI-H322M = experiment: Cytotoxicity against human NCI-H322M cells assessed as cell growth at 0.1 uM after 48 hrs by sulforhodamine B assay relative to control; conditions: read-out: Activity
NCI-H522 = experiment: Cytotoxicity against human NCI-H522 cells assessed as cell growth at 0.1 uM after 48 hrs by sulforhodamine B assay relative to control; conditions: NCI-H522, 48 h, read-out: Activity
OVCAR-5 [5] = experiment: Cytotoxicity against human OVCAR5 cells assessed as cell growth at 0.1 uM after 48 hrs by sulforhodamine B assay relative to control; conditions: OVCAR-5, 48 h, read-out: Activity
MCF7 = experiment: Cytotoxicity against human MCF7 cells assessed as cell growth at 0.1 uM after 48 hrs by sulforhodamine B assay relative to control; conditions: MCF7, 48 h, read-out: Activity
SR [6] = experiment: Cytotoxicity against human SR cells assessed as cell growth at 1 uM after 48 hrs by sulforhodamine B assay relative to control; conditions: read-out: Activity
HCC 2998 [7] = experiment: Cytotoxicity against human HCC2998 cells assessed as cell growth at 1 uM after 48 hrs by sulforhodamine B assay relative to control; conditions: HCC 2998, 48 h, read-out: Activity
HT-29 [8] = experiment: Cytotoxicity against human HT-29 cells assessed as cell growth at 1 uM after 48 hrs by sulforhodamine B assay relative to control; conditions: HT-29, 48 h, read-out: Activity
SW-620 = experiment: Cytotoxicity against human SW620 cells assessed as cell growth at 1 uM after 48 hrs by sulforhodamine B assay relative to control; conditions: SW-620, 48 h, read-out: Activity
SNB-19 [9] = experiment: Cytotoxicity against human SNB19 cells assessed as cell growth at 1 uM after 48 hrs by sulforhodamine B assay relative to control; conditions: SNB-19, 48 h, read-out: Activity
M14 = experiment: Cytotoxicity against human M14 cells assessed as cell growth at 1 uM after 48 hrs by sulforhodamine B assay relative to control; conditions: M14, 48 h, read-out: Activity
786-0 = experiment: Cytotoxicity against human 786-0 cells assessed as cell growth at 1 uM after 48 hrs by sulforhodamine B assay relative to control; conditions: 786-0, 48 h, read-out: Activity
SN12C = experiment: Cytotoxicity against human SN12C cells assessed as cell growth at 1 uM after 48 hrs by sulforhodamine B assay relative to control; conditions: read-out: Activity
Hs-578T [10] = experiment: Cytotoxicity against human Hs 578T cells assessed as cell growth at 1 uM after 48 hrs by sulforhodamine B assay relative to control; conditions: read-out: Activity
HOP-62 = experiment: Cytotoxicity against human HOP62 cells assessed as cell growth at 10 uM after 48 hrs by sulforhodamine B assay relative to control; conditions: HOP-62, 48 h, read-out: Activity
HT-29 [11] = experiment: Cytotoxicity against human HT-29 cells assessed as cell growth at 10 uM after 48 hrs by sulforhodamine B assay relative to control; conditions: HT-29, 48 h, read-out: Activity
U-251 = experiment: Cytotoxicity against human U251 cells assessed as cell growth at 10 uM after 48 hrs by sulforhodamine B assay relative to control; conditions: U-251, 48 h, read-out: Activity
NCI/ADR-RES = experiment: Cytotoxicity against human NCI/ADR-RES cells assessed as cell growth at 10 uM after 48 hrs by sulforhodamine B assay relative to control; conditions: read-out: Activity
RXF 393 = experiment: Cytotoxicity against human RXF393 cells assessed as cell growth at 10 uM after 48 hrs by sulforhodamine B assay relative to control; conditions: RXF 393, 48 h, read-out: Activity
PC-3 [12] = experiment: Cytotoxicity against human PC3 cells assessed as cell growth at 10 uM after 48 hrs by sulforhodamine B assay relative to control; conditions: PC-3, 48 h, read-out: Activity
MDA-MB-468 = experiment: Cytotoxicity against human MDA-MB-468 cells assessed as cell growth at 10 uM after 48 hrs by sulforhodamine B assay relative to control; conditions: MDA-MB-468, 48 h, read-out: Activity
HL-60(TB) = experiment: Cytotoxicity against human HL-60(TB) cells assessed as cell growth at 100 uM after 48 hrs by sulforhodamine B assay relative to control; conditions: HL-60, 48 h, read-out: Activity
SR [13] = experiment: Cytotoxicity against human SR cells assessed as cell growth at 100 uM after 48 hrs by sulforhodamine B assay relative to control; conditions: read-out: Activity
HCC 2998 [14] = experiment: Cytotoxicity against human HCC2998 cells assessed as cell growth at 100 uM after 48 hrs by sulforhodamine B assay relative to control; conditions: HCC 2998, 48 h, read-out: Activity
HCT-15 = experiment: Cytotoxicity against human HCT15 cells assessed as cell growth at 100 uM after 48 hrs by sulforhodamine B assay relative to control; conditions: HCT-15, 48 h, read-out: Activity
SK-MEL-28 = experiment: Cytotoxicity against human SK-MEL-28 cells assessed as cell growth at 100 uM after 48 hrs by sulforhodamine B assay relative to control; conditions: SK-MEL-28, 48 h, read-out: Activity
OVCAR-5 [15] = experiment: Cytotoxicity against human OVCAR5 cells assessed as cell growth at 100 uM after 48 hrs by sulforhodamine B assay relative to control; conditions: OVCAR-5, 48 h, read-out: Activity

## COc1ccc(-c2cc(/C=C/C(=O)c3ccc(N)cc3)[nH]n2)cc1OC
HT-29 [1]
  GI50: 2.6 µM
  LC50: 58.9 µM
  TGI: 6.91 µM
SF-268
  GI50: 1.89 µM
  TGI: 4.4 µM
  CC50: 11.2 µM
LOX IMVI
  GI50: 1.92 µM
  LC50: 7.98 µM
  TGI: 3.91 µM
IGROV-1
  GI50: 4.56 µM
  LC50: 73 µM
  TGI: 19 µM
OVCAR-3
  GI50: 1.92 µM
  LC50: 9.14 µM
  TGI: 4.19 µM
Hs-578T [2]
  GI50: 6.57 µM
  LC50: > 100 µM
  TGI: > 100 µM
SNB-19 [3]
  growth at 0.01 µM: 96%
SF-539
  growth at 0.01 µM: 93%
PC-3 [4]
  growth at 0.01 µM: 95%
DU-145
  growth at 0.01 µM: 109%
T47D
  growth at 0.01 µM: 85%
NCI-H322M
  growth at 0.1 µM: 102%
NCI-H522
  growth at 0.1 µM: 95%
OVCAR-5 [5]
  growth at 0.1 µM: 95%
MCF7
  growth at 0.1 µM: 89%
SR [6]
  growth at 1 µM: 34%
HCC 2998 [7]
  growth at 1 µM: 105%
HT-29 [8]
  growth at 1 µM: 99%
SW-620
  growth at 1 µM: 95%
SNB-19 [9]
  growth at 1 µM: 84%
M14
  growth at 1 µM: 101%
786-0
  growth at 1 µM: 87%
SN12C
  growth at 1 µM: 93%
Hs-578T [10]
  growth at 1 µM: 96%
HOP-62
  growth at 10 µM: -1%
HT-29 [11]
  growth at 10 µM: -19%
U-251
  growth at 10 µM: -68%
NCI/ADR-RES
  growth at 10 µM: 37%
RXF 393
  growth at 10 µM: -39%
PC-3 [12]
  growth at 10 µM: 20%
MDA-MB-468
  growth at 10 µM: -65%
HL-60(TB)
  growth at 100 µM: 3%
SR [13]
  growth at 100 µM: -5%
HCC 2998 [14]
  growth at 100 µM: -91%
HCT-15
  growth at 100 µM: -71%
SK-MEL-28
  growth at 100 µM: -93%
OVCAR-5 [15]
  growth at 100 µM: -81%

## COc1ccc(-c2cc(/C=C/C(=O)c3cc(OC)c(OC)c(OC)c3)[nH]n2)cc1OC
HT-29 [1]
  GI50: 1.3 µM
  LC50: 5.75 µM
  TGI: 2.73 µM
SF-268
  GI50: 1.68 µM
  TGI: 3.9 µM
  CC50: 9.03 µM
LOX IMVI
  GI50: 1.46 µM
  LC50: 5.7 µM
  TGI: 2.88 µM
IGROV-1
  GI50: 2.72 µM
  LC50: 46.7 µM
  TGI: 8.61 µM
OVCAR-3
  GI50: 1.59 µM
  LC50: 6.23 µM
  TGI: 3.15 µM
Hs-578T [2]
  GI50: 2.91 µM
  LC50: > 100 µM
  TGI: 22.1 µM
SNB-19 [3]
  growth at 0.01 µM: 91%
SF-539
  growth at 0.01 µM: 95%
PC-3 [4]
  growth at 0.01 µM: 97%
DU-145
  growth at 0.01 µM: 108%
T47D
  growth at 0.01 µM: 91%
NCI-H322M
  growth at 0.1 µM: 88%
NCI-H522
  growth at 0.1 µM: 86%
OVCAR-5 [5]
  growth at 0.1 µM: 92%
MCF7
  growth at 0.1 µM: 86%
SR [6]
  growth at 1 µM: 5%
HCC 2998 [7]
  growth at 1 µM: 105%
HT-29 [8]
  growth at 1 µM: 68%
SW-620
  growth at 1 µM: 70%
SNB-19 [9]
  growth at 1 µM: 77%
M14
  growth at 1 µM: 91%
786-0
  growth at 1 µM: 81%
SN12C
  growth at 1 µM: 87%
Hs-578T [10]
  growth at 1 µM: 86%
HOP-62
  growth at 10 µM: -57%
HT-29 [11]
  growth at 10 µM: -87%
U-251
  growth at 10 µM: -97%
NCI/ADR-RES
  growth at 10 µM: 9%
RXF 393
  growth at 10 µM: -80%
PC-3 [12]
  growth at 10 µM: 1%
MDA-MB-468
  growth at 10 µM: -62%
HL-60(TB)
  growth at 100 µM: -8%
SR [13]
  growth at 100 µM: -14%
HCC 2998 [14]
  growth at 100 µM: -82%
HCT-15
  growth at 100 µM: -49%
SK-MEL-28
  growth at 100 µM: -82%
OVCAR-5 [15]
  growth at 100 µM: -70%

Reference: ChEMBL document CHEMBL4138123, “Design, synthesis and biological evaluation of novel pyrazolochalcones as potential modulators of PI3K/Akt/mTOR pathway and inducers of apoptosis in breast cancer cells” (Eur J Med Chem, 2017)
